PMC5424463, “A strategy based on nucleotide specificity leads to a subfamily-selective and cell-active inhibitor of N ^6-methyladenosine demethylase FTO” (Chemical Science, 2014)
Where a name gives a salt, the structure may show the parent alone. Read-outs that look alike come from different tables or passages of the source.

Tests used:
[1] = biological target: T1, FTO (Homo sapiens, UniProt Q9C0B1); assay: HPLC-based inhibition assay for FTO, m3T substrate; assay type: biochemical
T1 construct: The human full length FTO construct used in this study; made in house; host or cells: E. coli BL21 (DE3) Rosetta T1R
Experimental: HPLC-based inhibition assays for FTO
The assay was modified from previously reported method.[17] It is performed in triplicate for each inhibitor, in a final reaction volume of 25 µL. Reaction consisted of FTO (1 µM), 2OG (50 µM), (NH4)2Fe(SO4)2·6H2O (50 µM), L-ascorbate (2 mM), 3-methylthymidine (m3T substrate, 10 µM) in 50 mM HEPES buffer, pH 7.5, and inhibitor at various concentrations (final DMSO concentration not more than 1% v/v of assay mix). The reaction was incubated at 4°C for 1 h, before analysis on a HPLC system. The substrate (m3T) and the demethylated product (thymidine) were separated using a Zorbax C18 column (4.6 mm x 250 mm) with a […]
flow rate of 1 mL/min at room temperature.
The percentage inhibition was estimated based on the peak areas of the 3-methylthymidine substrate and the thymidine product. For IC50 determination, eight different concentrations of […]
the variation in percentage demethylation at different inhibitor concentrations, using nonlinear regression, with normalized dose-response fit on GraphPad Prism 6.0™.
HPLC-based assay for FTO was also performed using an m6A-ssRNA as substrate. The assay was modified from previously reported method.[21] All reaction conditions are as described for the inhibition of m3T demethylation above, except that a 15-mer ssRNA with the sequence 5’-CUUGUCA(m6A)CAGCAGA-3’ (Yale University, W.M. Keck Foundation Biotechnology Resource Laboratory) was used as substrate (10 µM). The reaction was analysed on a bio-inert HPLC system. The m6A-ssRNA substrate and the corresponding demethylated product were separated using a Dionex DNAPac PA200 anion-exchange

[2] = biological target: T2, ALKBH3 (Homo sapiens, UniProt Q96Q83); assay: Differential scanning fluorimetry (DSF)-based binding assay, ALKBH3; settings: DSF, 100 μM compound, 2 μM protein, 50 μM MnCl2; for ΔTm at 100 µM: read-out: Tm shift (ALKBH3)
T2 construct: Human ALKBH3 (encompassing residues 1- 286); purchased ProSpec-Tany Technogene Ltd, Israel
T2 sequence (Q96Q83 1-286): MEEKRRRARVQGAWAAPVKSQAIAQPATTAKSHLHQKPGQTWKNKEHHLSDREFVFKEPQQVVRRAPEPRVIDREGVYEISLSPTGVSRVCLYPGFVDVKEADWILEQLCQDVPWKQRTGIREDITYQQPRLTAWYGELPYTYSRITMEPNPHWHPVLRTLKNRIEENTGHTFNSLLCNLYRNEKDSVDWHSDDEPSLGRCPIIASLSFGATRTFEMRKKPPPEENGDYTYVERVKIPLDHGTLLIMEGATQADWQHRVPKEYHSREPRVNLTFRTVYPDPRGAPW
Experimental: (§1) Superdex-200 column (GE Healthcare) pre-equilibrated with 20 mM HEPES, pH 7.5, 300 mM NaCl, 10% (v/v) glycerol, 0.5 mM TCEP. […]
(§2) Differential scanning fluorimetry (DSF)-based binding assay
(§3) DSF-based binding assay was performed using a MiniOpticon™ Real-Time PCR Detection System (Bio-Rad), monitoring protein unfolding using SYPRO orange (Invitrogen) according to the reported method.[16] FAM (492 nm) and ROX (610 nm) filters were used for excitation and emission respectively. Reaction mixes contained 2 μM protein, 50 μM MnCl2, 100 μM compounds, 5x SYPRO orange in a final volume of 50 μl. Reagents were prepared in 50mM HEPES buffer, pH 7.5 except metals, which were dissolved as 100 mM stocks in 20 mM HCl, then further diluted in MilliQ water. Compounds tested were prepared in 100% DMSO and added such that the final concentration of DMSO was not more than 1% v/v of assay […]
(§4) mix. Fluorescence readings were taken every 1°C in the range 25-95°C, with the temperature increased linearly by 1°C min -1. The software provided was used to perform global minimum subtraction. The inflection point, representing Tm, was calculated by fitting the Boltzmann equation to the sigmoidal curves obtained; data were processed using GraphPad Prism 6.0™.
(§5) The Tm shift caused by the addition of small molecules/ fragments was determined by subtraction of the “reference” Tm (protein incubated with metal and 1% v/v DMSO) from the Tm obtained in the presence of the compound. The assay was performed in triplicate for each inhibitor, with standard deviations typically < 1°C. […]

[3] = biological target: T3, ALKBH5 (Homo sapiens, UniProt Q6P6C2); assay: Differential scanning fluorimetry (DSF)-based binding assay, ALKBH5; settings: 100 μM compound, 2 μM protein; for ΔTm at 100 µM: 50 μM MnCl2, read-out: Tm shift (ALKBH5); for Tm shift (ALKBH5): 50 μM MnCl2
T3 construct: pNIC28-Bsa4 ALKBH5 (encompassing residues 66-292); made in house; host or cells: E. coli BL21 (DE3) Rosetta T1R
Experimental: as §1, §2
(§6) DSF-based binding assay was performed using a MiniOpticon™ Real-Time PCR Detection System (Bio-Rad), monitoring protein unfolding using SYPRO orange (Invitrogen) according […]
(§7) to the reported method.[16] […]
(§8) and emission respectively. Reaction mixes contained 2 μM protein, 50 μM MnCl2, 100 μM […]
(§9) Reagents were prepared in 50mM
(§10) HEPES buffer, pH 7.5 except metals, which were dissolved as 100 mM stocks in 20 mM HCl, then further diluted in MilliQ water. Compounds tested were prepared in 100% DMSO and added such that the final concentration of DMSO was not more than 1% v/v of assay […]
(§11) increased linearly by 1°C min -1. The software provided was used to perform global minimum subtraction. The inflection point, representing Tm, was calculated by fitting the Boltzmann equation to the sigmoidal curves obtained; data were processed using GraphPad Prism 6.0™.
(§12) The Tm shift caused by the addition of small molecules/ fragments was determined by subtraction of the “reference” Tm (protein incubated with metal and 1% v/v DMSO) from the Tm obtained in the presence of the compound. […]

[4] = biological target: T4, ALKBH2 (Homo sapiens, UniProt Q6NS38); assay: Differential scanning fluorimetry (DSF)-based binding assay, ALKBH2; settings: DSF, 100 μM compound, 2 μM protein, 50 μM MnCl2; for ΔTm at 100 µM: read-out: Tm shift (ALKBH2)
T4 construct: made in house; host or cells: E. coli BL21 (DE3)
T4 sequence (Q6NS38 56-258): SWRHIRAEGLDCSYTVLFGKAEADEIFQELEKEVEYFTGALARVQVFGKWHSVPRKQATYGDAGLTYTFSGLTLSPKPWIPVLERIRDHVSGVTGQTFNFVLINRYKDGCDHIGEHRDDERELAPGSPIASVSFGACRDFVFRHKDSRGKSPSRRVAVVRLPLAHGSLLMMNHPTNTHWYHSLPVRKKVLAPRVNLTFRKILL
Experimental: as §1, §2, §3, §4, §5

[5] = biological target: T5, AlkB (Escherichia coli, UniProt P05050); assay: Differential scanning fluorimetry (DSF)-based binding assay, AlkB; settings: 100 μM compound, 2 μM protein; for ΔTm at 100 µM: 50 μM MnCl2, read-out: Tm shift (AlkB); for Tm shift (AlkB): 50 μM MnCl2
T5 construct: made in house; host or cells: E. coli BL21 (DE3) Rosetta T1R
Experimental: as §1, §2, §3, §4, §5

[6] = biological target: T1, FTO; assay: Differential scanning fluorimetry (DSF)-based binding assay, FTO; settings: 100 μM compound, 2 μM protein; for ΔTm at 100 µM: 50 μM MnCl2, read-out: Tm shift (FTO); for Tm shift (FTO): 50 μM MnCl2
Experimental: as §1, §2, §6, §7, §8, §9, §10, §11, §12

[7] = HPLC-based demethylase assay, m3T substrate, read-out: IC50 (FTO)

T3 sequence (Q6P6C2 66-292): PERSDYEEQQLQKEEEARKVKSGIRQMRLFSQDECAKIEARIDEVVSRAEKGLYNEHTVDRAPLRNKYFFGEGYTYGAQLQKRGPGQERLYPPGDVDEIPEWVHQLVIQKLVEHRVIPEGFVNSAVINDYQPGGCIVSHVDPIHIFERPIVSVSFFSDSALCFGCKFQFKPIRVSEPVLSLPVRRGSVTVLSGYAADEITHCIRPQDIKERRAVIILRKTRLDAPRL
T1 sequence (Q9C0B1 whole entry): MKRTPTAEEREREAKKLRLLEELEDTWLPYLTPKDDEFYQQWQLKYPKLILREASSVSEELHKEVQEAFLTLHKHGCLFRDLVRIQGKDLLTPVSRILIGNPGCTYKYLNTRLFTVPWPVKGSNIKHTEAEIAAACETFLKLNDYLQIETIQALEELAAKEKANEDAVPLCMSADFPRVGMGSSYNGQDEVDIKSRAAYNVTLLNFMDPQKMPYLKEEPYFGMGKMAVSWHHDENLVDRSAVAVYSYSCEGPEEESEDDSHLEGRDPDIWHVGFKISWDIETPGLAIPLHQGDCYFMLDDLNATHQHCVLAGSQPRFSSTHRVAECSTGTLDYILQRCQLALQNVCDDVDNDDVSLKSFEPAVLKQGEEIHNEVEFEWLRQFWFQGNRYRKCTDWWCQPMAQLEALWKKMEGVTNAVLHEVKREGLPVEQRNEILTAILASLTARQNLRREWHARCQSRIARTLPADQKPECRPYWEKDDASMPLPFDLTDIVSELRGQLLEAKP
T5 sequence (P05050 12-216): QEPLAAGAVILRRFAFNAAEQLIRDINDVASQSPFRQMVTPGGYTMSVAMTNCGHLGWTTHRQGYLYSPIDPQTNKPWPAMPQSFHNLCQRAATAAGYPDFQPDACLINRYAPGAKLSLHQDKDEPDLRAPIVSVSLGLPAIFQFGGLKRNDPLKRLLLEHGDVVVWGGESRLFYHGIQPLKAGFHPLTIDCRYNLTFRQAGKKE

Row | Molecule | Tm shift (ALKBH3) [2] [°C] | Tm shift (ALKBH5) [3] [°C] | Tm shift (ALKBH2) [4] [°C] | Tm shift (AlkB) [5] [°C] | Tm shift (FTO) [6] [°C] | also measured
1 | NNC(=O)CCC(=O)O [Compound 1, succinate hydrazide] | – | – | – | – | – | IC50 [1, 7]: > 100 µM
2 | NNC(=O)/C=C/C(=O)O [Compound 2, fumarate hydrazide] | – | – | – | – | – | IC50 [1, 7]: > 100 µM
3 | NNC(=O)/C=C\C(=O)O [Compound 3, maleate hydrazide] | – | – | – | – | – | IC50 [1, 7]: > 100 µM
4 | O=C(O)/C=C/C(=O)NNC(=O)c1cnc2ccccc2c1 [Compound 8] | – | – | – | – | – | IC50 (FTO) ([1]; HPLC-based demethylase assay, m3T substrate): low micromolar range
5 | CN(C)NC(=O)CCC(=O)O [daminozide, reference compound] | – | – | – | – | – | IC50 [1]: > 100 µM
6 | Cc1cn([C@H]2C[C@H](O)[C@@H](CO)O2)c(=O)n(C)c1=O [m3T, N ^3-methylthymidine] | – | – | – | – | – | ΔTm at 100 µM [2]: 1.3 °C; ΔTm at 100 µM [3]: 1.1 °C; ΔTm at 100 µM [4]: 1.1 °C; ΔTm at 100 µM [5]: 1.4 °C; ΔTm at 100 µM [6]: 12.1 °C
7 | CNc1ncnc2c1ncn2[C@@H]1O[C@H](CO)[C@@H](O)[C@H]1O [m6A, N ^6-methyladenosine] | – | – | – | – | – | ΔTm at 100 µM [2]: 2.1 °C; ΔTm at 100 µM [3]: 9.8 °C; ΔTm at 100 µM [4]: 1.3 °C; ΔTm at 100 µM [5]: 2.6 °C; ΔTm at 100 µM [6]: 2.4 °C
8 | ATTGTGG(A)CUGCAGC: unmethylated counterpart of the 15-mer m6A ssRNA | 3.5 | 3.6 | 1.2 | 2.4 | 3.4 | –
9 | ATTGTGG(T)CTGCAGC: unmethylated counterpart of the 15-mer m3T ssDNA | 2.4 | 3.4 | 1.3 | 2.7 | 3.2 | –
10 | ATTGTGG(m3T)CTGCAGC: 15-mer m3T-containing ssDNA | 2.9 | 2.6 | 1.5 | 3.1 | 3.0 | –
11 | ATTGTGG(m6A)CUGCAGC: 15-mer m6A-containing ssRNA | 3.0 | 3.5 | 1.0 | 2.7 | 3.0 | –
